Among the data in PubChem BioAssay (NCI) are TGI and GI50 values, retold here.

What all share (assay): NCI tumour cell line growth inhibition, 48 h
For assay [1], the system named is SF-295 CNS.
The subject of assay [2] is SF-268 CNS.
The subject of assay [3] is MOLT-4 leukemia.
The subject of assay [4] is CAKI-1 renal.
Assay [5] relates to COLO 205 colon.
Assay [6] deals with HCT-116 colon.
Assay [7] relates to K-562 leukemia.
Assay [8] has as its system UACC-62 melanoma.
Assay [9] deals with M14 melanoma.
The test system of assay [10] is KM12 colon.

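Cultured in 96-well plates, cells were exposed to test compound for 48 hours across five concentrations. GI50 marks 50% less growth. TGI: total growth inhibition.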 Some results are limits rather than exact numbers.

For the compound `CCCN(CCCCC(NC(C)=O)C(=O)NCc1ccccc1)C(=O)N(C)N=O` (centres undefined), the TGI in assay [1], in assay [2], in assay [3], in assay [4], in [5] and in assay [6] was above 100 µM in each case. Further, the TGI in assay [7], in [8], in assay [9] and in [10] was above 100 µM throughout.
For the compound `COc1ccc2c(c1)c(-c1ccc(-c3cn(S(=O)(=O)c4ccccc4)c4ccc(OC)cc34)s1)cn2S(=O)(=O)c1ccccc1`, the GI50 in assay [1], in assay [2], in assay [3], in [4], in assay [5] and in assay [6] was above 100 µM throughout. Also, the GI50 in [7], in assay [8], in [9] and in [10] was above 100 µM each time. For the same compound, the TGI in [1], in [2], in assay [3], in [4], in assay [5] and in assay [6] was above 100 µM in each case. Besides, the TGI in assay [7], in [8], in [9] and in [10] was above 100 µM each time.
For the compound `C=C1C(=O)O[C@@H]2C[C@@]3(C)CCC[C@H](C)C3=C[C@H]12`, the TGI in assay [1] was found to be 34.5 µM; in assay [2], 26.7 µM; in assay [3], 4.8 µM; in assay [4], 17.3 µM; in assay [5], 3.39 µM; in [6], 16.2 µM. Also, the TGI came to 31.2 µM in assay [7], 19.8 µM in assay [8], 12.6 µM in assay [9] and 24.8 µM in assay [10].
For `COC(=O)C1=C(O)c2cc(OC)c(OC)c(OC)c2[C@H](c2cc(OC)c(OC)c(OC)c2)C1C(=O)OC` (some centres undefined), the TGI is 98.1 µM in assay [1]; above 100 µM in assay [2]; 68.3 µM in assay [3]; above 100 µM in [4]; 37.9 µM in assay [5]; above 100 µM in [6]. The TGI in assay [7] is 86.1 µM; in assay [8], 76 µM; in assay [9], above 100 µM; in assay [10], above 100 µM.
Regarding `O=C1CC(c2ccc(N3CCOCC3)cc2)(c2ccsc2)NC(=O)C1Sc1ccccc1Cl` (centres undefined), the GI50 was 67 µM in assay [1]; 20.2 µM in assay [2]; 46.9 µM in assay [3]; 28.4 µM in [4]; above 100 µM in [5]; 25.4 µM in assay [6]. For the same compound, the GI50 is 4.69 µM in assay [7], 53.1 µM in assay [8], 60.7 µM in assay [9] and 43.7 µM in assay [10]. The TGI in [1], in [2], in [3], in assay [4], in assay [5] and in [6] was above 100 µM in each case. The TGI in assay [7], in assay [8], in assay [9] and in assay [10] was above 100 µM each time.
Turning to `Cc1c(Cl)ccc2c1NC(=O)C2(O)C(C(=O)c1ccccc1)c1ccccc1` (centres undefined), the TGI in assay [1] is 92.6 µM; in assay [2], above 100 µM; in assay [3], 76.7 µM; in [4], above 100 µM; in assay [5] it was above 100 µM; in assay [6] it was above 100 µM. Besides, the TGI is above 100 µM in assay [7], 46 µM in [8], above 100 µM in assay [9] and above 100 µM in assay [10].
Take `CC[C@@H](C(=O)[C@@H](C)[C@@H](O)[C@H](C)[C@@H]1O[C@@H]([C@@H](CC)C(=O)O)CC[C@@H]1C)C1O[C@]2(C=CC(=O)[C@]3(CC[C@@](C)([C@H]4CC[C@](O)(CC)[C@H](C)O4)O3)O2)[C@H](C)C[C@@H]1C` (some centres undefined): the GI50 was 1.21 µM in assay [1]; 2.12 µM in [2]; 1.42 µM in assay [3]; 0.765 µM in assay [4]; 0.159 µM in assay [5]; 0.69 µM in [6]. For the same compound, the GI50 is 0.371 µM in assay [7], 1.29 µM in [8], 1.41 µM in assay [9] and 0.515 µM in assay [10]. The TGI in assay [1] was 12.8 µM; in [2], 15.7 µM; in assay [3], 6.3 µM; in [4], 11.8 µM; in assay [5], 2.1 µM; in assay [6] it was 15.3 µM. In addition, the TGI was above 27.4 µM in [7], 2.67 µM in assay [8], 3.53 µM in assay [9] and 6 µM in [10].
Regarding `CC(C)=CCC[C@H](C)[C@@H]1CC[C@]2(C)C3CC[C@]4(OC4(C)C)C(CCCO)[C@]3(C)CC[C@@]12C` (some centres undefined), the GI50 in assay [1] was 27.9 µM; in assay [2] it was 17.8 µM; in assay [3], 18.2 µM; in assay [4], 21.7 µM; in assay [5], 31.5 µM; in assay [6] it was 29 µM. Moreover, the GI50 in assay [7] is 25.3 µM; in assay [8], 13.6 µM; in assay [9], 32.1 µM; in [10], 22.5 µM. In addition, the TGI was 63.3 µM in assay [1]; 36 µM in assay [2]; 44.6 µM in assay [3]; 44.4 µM in assay [4]; above 100 µM in [5]; above 100 µM in assay [6]. The TGI in [7] is 73.3 µM; in [8], 30.4 µM; in assay [9], above 100 µM; in assay [10], 59.5 µM.
For the compound `C1=Cc2ccccc2Nc2ccccc21`, the GI50 in assay [1], in assay [2], in assay [3], in assay [4], in assay [5] and in assay [6] was above 100 µM in each case. The GI50 in assay [7], in assay [8], in [9] and in [10] was above 100 µM each time. Also, the TGI in assay [1], in assay [2], in [3], in assay [4], in [5] and in assay [6] was above 100 µM throughout. In addition, the TGI in assay [7], in assay [8], in [9] and in assay [10] was above 100 µM in each case.
Consider `CC(=O)OC(/C=C1/C=CC(=O)O1)COC(=O)c1ccccc1` (centres undefined), for which the TGI in assay [1], in assay [2], in [4], in assay [5], in assay [6] and in assay [7] was above 31.2 µM in each case. Moreover, the TGI in [8], in [9] and in assay [10] was above 31.2 µM throughout.
As for `COc1ccc(-c2[nH]c3ccccc3c2C=C(C#N)C#N)cc1`, the GI50 in [1] is 0.331 µM; in assay [2] it was 0.708 µM; in [3], 0.578 µM; in [4] it was 0.625 µM; in [5], 0.223 µM; in assay [6] it was 0.41 µM. For the same compound, the figures for the GI50 in assay [8], in assay [9] and in assay [10] were 0.347 µM, 0.289 µM and 0.373 µM, respectively. For the same compound, the TGI in [1] was 6.3 µM; in assay [2], 65.6 µM; in assay [3], 5.53 µM; in [5], 0.533 µM; in assay [6] it was above 21.1 µM.
`Cn1ccnc1C(=O)/C=C/c1ccc(C(=O)Nc2ccc(Cl)cc2)cc1`: the GI50 in [1] was 1.46 µM; in assay [2], 1.37 µM; in assay [3], 0.81 µM; in [4], 1.17 µM; in [5] it was 1.03 µM; in assay [6], 0.514 µM. The results for the GI50 in assay [7], in assay [8] and in assay [9] were 0.646 µM, 1.55 µM and 0.968 µM, respectively. Moreover, the TGI was 6.11 µM in assay [1]; above 33.3 µM in assay [2]; 2.43 µM in [3]; above 33.3 µM in assay [4]; above 33.3 µM in assay [5]; 1.08 µM in assay [6]. For the same compound, the TGI in assay [7] is above 33.3 µM; in assay [8], 7.59 µM; in assay [9], 4.96 µM.
As to `Cc1[nH]c2ccccc2c1C1Cc2ccccc2N1C(=O)/C=C/C=C/c1ccccc1` (centres undefined), the TGI in assay [1], in assay [3], in [4], in [5], in assay [6] and in assay [7] was above 100 µM throughout. The TGI in [8], in [9] and in assay [10] was above 100 µM in each case.
On to `CS(=O)(=O)NNS(=O)(=O)c1cccc([N+](=O)[O-])c1`, for which the TGI in assay [1], in assay [3], in assay [4], in assay [5], in assay [6] and in assay [7] was above 100 µM throughout. Also, the TGI in assay [8], in [9] and in assay [10] was above 100 µM each time.
